Reference: patent publication US8198317B2, “Methylenedioxy phenolic compounds and their use to treat disease” (The Ohio State University Research Foundation, priority 2008, dated 2012)

Key:
Assay type in all cases: in vivo, human
[1] = system: Humans; assay: Treatment of established atherosclerosis in humans (Example 21); details: oral, in excess of 12 months
Source text: Individuals with established atherosclerosis with evidence of plaque in the coronary arteries, carotid arteries or peripheral arteries are known to be at risk for future cardiovascular events such as heart attacks and strokes. These individuals are on treatments such as statins and anti-hypertensive agents such as ACE inhibitors, diuretics or calcium channel blockers. They also will receive an acceptable dose of a composition comprising a compound of the present invention in an acceptable carrier orally and chronically for durations in excess of 12 months. In one study, 3,4-methylenedioxy phenyl acetate (INV 73); 3,4-methylenedioxy-6-nitrophenol (INV 74); 3,4-methylenedioxy-6-nitrophenyl acetate (INV 75); 3,4-Methylenedioxy 6-nitro phenyl lipoate (INV-7465) or 3,4-Methylenedioxy phenyl lipoate (INV-7065) are administered to these individuals. A repeat IVUS measurement is made at the end of the treatment period to assess the effect of the infusion of the composition on coronary atherosclerosis in the target vessel.

[2] = system: Patient; assay: Treatment of a patient with acute ST elevation myocardial infarction (Examples 13-15); details: 1.0 to 100 mg/kg intravenously
Method: A person presents with sudden chest pain typically radiating to the left arm or left side of the neck, shortness of breath, nausea and palpitation with vomiting and sweating. After being evaluated with an electrocardiogram (EKG, ECG), a chest X-ray and blood tests to detect elevations in cardiac markers (blood tests to detect heart muscle damage), they are diagnosed as suffering from acute ST elevation myocardial infarction. The patient is administered a composition comprising an effective amount of 3,4-methylenedioxy-6-nitrophenyl acetate (INV 75) (1.0 to 100 mg/kg) intravenously. The composition is optionally administered in conjunction with therapy such as thrombolytic drugs such as tissue plasminogen activator (tPA) or streptokinase and administration of aspirin, a drug to reduce the tendency of platelet aggregation, such as clopidogrel bisulfate, a statin, and/or heparin or a combination thereof, using dosages known to one of ordinary skill in the art. Patient reports improvement in the chest pain, shortness of breath and palpitations.
(§1) A person presents with sudden chest pain typically radiating to the left arm or left side of the neck, shortness of breath, nausea and palpitation with vomiting and sweating. After being evaluated with an electrocardiogram (EKG, ECG), a chest X-ray and blood tests to detect elevations in cardiac markers (blood tests to detect heart muscle damage), they are diagnosed as suffering from acute ST elevation myocardial infarction. The patient is administered a composition comprising an effective amount of 3,4-methylenedioxy-6-nitrophenyl acetate (INV 7465) (1.0 to 100 mg/kg) intravenously. […]
as §1, with “infarction.” for “infarction. The patient is administered a composition comprising an effective amount of 3,4-methylenedioxy-6-nitrophenyl acetate (INV 7465) (1.0 to 100 mg/kg) intravenously.”

[3] = system: Cardiovascular Patient; assay: Treatment of a cardiovascular patient with chest pain (Examples 8-10); details: 1.0 to 100 mg/kg
Method: A person presents with uncomfortable pressure, squeezing and pain in the center of their chest as well as in shoulders, arms, neck, jaw and back. […] After being evaluated with an angiography, they are diagnosed as suffering from atherosclerosis with plaque formation in the coronary arteries. The patient is administered a composition comprising an effective amount of 3,4-methylenedioxy-6-nitrophenyl acetate (INV 75) (1.0 to 100-mg/kg). Alternate therapies include, 3,4-methylenedioxy phenyl acetate (INV 73); 3,4-methylenedioxy-6-nitrophenol (INV 74; 3,4-Methylenedioxy 6-nitro phenyl lipoate (INV-7465) or 3,4-Methylenedioxy phenyl lipoate (INV-7065). The composition is optionally administered in conjunction with therapy such as administration of aspirin, a drug to reduce the tendency of platelet aggregation, such as clopidogrel bisulfate, a statin, an angiotensin converting enzyme inhibitor, and/or heparin or a combination thereof, using dosages known to one of ordinary skill in the art. Patient reports improvement in the chest pain, shortness of breath. They are again evaluated with an angiography to measure reduced plaque in their arteries.
A person presents with uncomfortable pressure, squeezing and pain in the center of their chest for less than 30 minutes. They are taken to the cardiac angiography suite for suspected unstable angina. […] After being evaluated with an angiography, they are diagnosed as suffering from atherosclerosis with plaque formation in the coronary arteries. The patient is administered a composition comprising an effective amount of 3,4-Methylenedioxy phenyl lipoate (INV-7065) (1.0 to 100 mg/kg). […] They are again evaluated with an angiography to measure reduced plaque in their arteries.
A person presents with uncomfortable pressure, squeezing and pain in the center of their chest for less than 30 minutes. […] After being evaluated with an angiography, they are diagnosed as suffering from atherosclerosis with plaque formation in the coronary arteries. […] They are again evaluated with an angiography to measure reduced plaque in their arteries.

Row | SMILES | plaque in the atherosclerotic coronary artery (IVUS) [1] | chest pain, shortness of breath and palpitations [2] | chest pain, shortness of breath [3]
1 | CC(=O)Oc1cc2c(cc1[N+](=O)[O-])OCO2 [INV-75, 3,4-methylenedioxy-6-nitrophenyl acetate] | reduced | improvement | improvement
2 | O=C(CCCCC1CCSS1)Oc1cc2c(cc1[N+](=O)[O-])OCO2 (stereo not drawn) [INV-7465, 3,4-Methylenedioxy 6-nitro phenyl lipoate] | reduced | improvement | improvement
3 | O=C(CCCCC1CCSS1)Oc1ccc2c(c1)OCO2 (stereo not drawn) [INV-7065, 3,4-Methylenedioxy phenyl lipoate] | reduced | improvement | improvement
